Values quoted from earlier work, collected in patent US12290522B2, “Method of treating amyotrophic lateral sclerosis” (Woolsey Pharmaceuticals, Inc., priority 2021, dated 2025).

Details: in vivo; 1-hydroxy metabolite; Shibuya 2001; cited from earlier work

In the case of `O=S(=O)(c1cccc2c(O)nccc12)N1CCCNCC1` [M3], the half-life is listed as “about 8 hours”.
